The nature of data set [1]: Passive membrane permeation assay (PAMPA). The data set is classed as in vitro ADME. The note with it: pre-coated PAMPA plate, PBS pH 7.4, 200 µM, 25 °C; for R (mass retention) / Pe: 5 h; for Pe / Papp at 5 h, 200 µM: mean ± standard deviation; for Papp at 5 h, 200 µM: read-out: Pe. The method, then:
The passive membrane permeability was evaluated with a pre-coated PAMPA plate system (BD Gentest, BD Bioscience, Germany) following the guidelines of the manufacturer and a previous literature report (cf. Kühl et al. Eur. J. Med. Chem. 2022, 240, 114585). Phosphate-buffered saline (PBS) pH 7.4 (Sigma-Aldrich, Germany) was used for all experiments. Analyte concentrations were determined on a Jasco HPLC system equipped with a UV detector and an RP-18 column (Chromolith® Performance RP-18e, 100x4.6 mm) using one of the gradients listed in Table 2. For all samples, the injection volume was 40 µl. Table 2: HPLC settings for the analysis of PAMPA samples.
Prior to performing the assay, the PAMPA plate was warmed to room temperature for 0.5 h. In the donor plate, 300 µL of the 200 µM compound solutions in PBS (4 % dimethyl sulfoxide (DMSO)) were dispensed in triplicate, and in the acceptor plate, 200 µL of PBS buffer were added to all wells. The plates were combined, and the system was incubated at 25 °C for 5 h. Upon completion of the incubation, donor and acceptor plate were separated. The wells were homogeneously mixed with a pipette, and a 100 µl sample of each donor and acceptor well was transferred to 96 well U-bottom polypropylene plates (Greiner Bio-One, Germany) for quantitative HPLC analysis.
In general terms: PAMPA measures passive passage across an artificial lipid membrane.

For data set [2], the system named is HuH-7 cells. As to the kind of experiment: Cell viability in HuH-7 cells (CellTiter-Blue). Format: cell-based, human. The note with it: 50 µM, mean of triplicates ± standard deviation. The method, then:
In order to assess cytotoxic effects of compounds in cell culture, HuH-7 cells were incubated in presence of these compounds in a 96-well plate for 2 h or 24 h. In order to generate a calibration curve for cell viability, a serial dilution (1:2 dilution series) of cells was seeded into control wells. Measurement of cell viability is based on the assay development using CellTiter-Blue reagent (Resazurin, blue color), which is reduced to resofurin (pink color) by viable cells.
Prior to performing the assay, a 96-well assay plate (F-bottom, transparent, Greiner) containing HuH-7 cells (20,000 cells per well) in culture medium was prepared. […] CellTiter-Blue reagent (1-2 mL) was diluted with cell culture medium (10 mL) in a Falcon tube and prewarmed to 37 °C. The 96-well plate was removed from the incubator, the medium aspirated using a vacuum pump and 100 µL of diluted CellTiter-Blue reagent was added to each well.

Data set [3] in a line: Drug release kinetics (prodrug cleavage) in human blood plasma. The data set is classed as in vitro ADME. The note with it: 37 °C; for half-life: 10 % human plasma in PBS, 50 µM; for half-life at 50 µM: 100 % human plasma. The procedure:
Pooled human blood plasma (Biowest, France) and sterile Dulbecco's phosphate buffered saline (PBS) pH 7.3 (Sigma-Aldrich, Germany) were used for all experiments. The blood plasma was aliquoted upon receipt and stored at -20 °C. 10 % solutions were prepared by thawing a plasma aliquot at 2-8 °C, distributing it into plastic vials and diluting with the appropriate volume of sterile PBS. The 10 % and 100 % plasma aliquots were stored at -20 °C and thawed at 2-8 °C directly before the assay was performed. In a thermoblock, a plasma aliquot and 10 µl of a 5 mM prodrug solution in DMSO were prewarmed to 37 °C for 10 min in separate plastic vials. Then, 1000 µl of the prewarmed plasma sample was added to the prodrug solution, and 9×100 µl samples were withdrawn at appropriate time intervals. The enzymatic reaction was quenched by immediate mixing of the samples (100 µl) with acetonitrile (200 µl). Blank samples were prepared by mixing 10 % or 100 % plasma (100 µl) with acetonitrile (200 µl), respectively. Samples of the initial reaction mixture were prepared by adding the 5 mM prodrug solution (1 µl) to a blank sample.
Centrifugation (13,000 rpm, 3 min) of the quenched samples afforded clear supernatants which were transferred to 96 well U-bottom polypropylene plates (Greiner Bio-One, Germany). Analyte quantifications were performed on a Jasco HPLC system equipped with a UV detector and an RP-18 column (Chromolith® Performance RP-18e, 100x4.6 mm) using one of the gradients listed in Table 3. Prodrug degradation was monitored using undiluted supernatant and a 10 min chromatographic method. […] For all samples, the injection volume was 40 µL and the flow was set to 1.0 mL/min. […] Table 3: HPLC settings for quantitative analysis of plasma samples.

Data set [4] is described as follows: Prodrug stability in human whole saliva. Format: in vitro ADME. The note with it: mean of fresh samples of three individuals, classified into three groups; for half-life at 50 µM: 37 °C. The procedure:
Freshly collected saliva and 5 mM stock solutions of the analytes in DMSO were prewarmed to 37 °C for 10 min. Then, 700 µl prewarmed saliva was added to 7 µl of the prodrug stock, and the mixture was incubated at 37 °C. Samples (100 µL) were taken at selected time points (0, 10, 20, 40, 60 min; 2 h or 24 h) and immediately quenched with acetonitrile (200 µl). Blank samples were prepared by mixing saliva (100 µl) with acetonitrile (200 µl). Centrifugation (3,000 rpm, 5 min) of the quenched samples afforded clear supernatants which were transferred to 96 well U-bottom polypropylene plates (Greiner Bio-One, Germany). Analyte quantifications were performed on a Jasco HPLC system equipped with a UV detector and an RP-18 column (Chromolith® Performance RP-18e, 100x4.6 mm) using the gradients listed in Table 4. Samples that gave rise to asymmetric peaks inadequate for quantification were diluted (1:1) with H2O (+0.1 % TFA). The injection volume was 40 µl and the flow was set to 1.0 mL/min. UV detection was performed at 286 nm. […] Table 4: HPLC settings for quantitative analysis of saliva samples.

Data set [5] in a line: Stability of prodrugs in methanol (1H NMR). Format: physicochemical. The note with it: CD3OD, ambient temperature, within 18 days. The source says: The stability of the exemplary carboxylic ester 8b in methanol was studied by dissolving a few milligrams of the fumarate ester in CD3OD at ambient temperature and measuring ^1H NMR spectra in appropriate time intervals.
Data set [6] in a line: Equilibrium solubility (shake-flask). The note with it: 35.5 °C, pH 6.8, aqueous buffer, thermodynamic from solid. The procedure:
For each reported solubility result, one shake-flask experiment was carried out unless otherwise stated. Measurements at pH 2.0 were performed in 0.01 M HCl. Measurements at pH 6.8 were performed in a KH2PO4/K2HPO4 buffer with an ionic strength of 70 mM. For each experiment, the solid, HPLC-purified sample (1.7 - 25 mg) was suspended in 250 - 500 µL of the aqueous buffer in a glass vial. The solution containing solid excess of the sample was then capped and shaken at 220 rpm in an Infors HT Minitron incubator at a defined temperature for 6 hours. Three aliquots (3 × 70 µL) were removed with a fine pipette from each shake-flask experiment, and the saturated solution in these aliquots was separated from precipitate by centrifugation (10000 rpm, 5 min) at the assay temperature. […] The reported values are the mean of three measured concentrations. The error was estimated based on the standard deviation of the three measurements and the uncertainty of the calibration curve. Table 8: Equilibrium solubility of selected prodrugs along with references.

“And” between values parts separate entries of the source, which are not always exact repeats. Equal entries are not always repeated. Structures can show the parent of a compound that is named as a salt.

What is called half-life is how long it takes for the measured level to halve. For orientation: solubility (thermodynamic) means the concentration in solution at equilibrium with solid.

As to `CCCC(=O)Oc1cccc2[nH]cc(CCN(C)CC)c12` [Compound 8b, 4-Butyryloxy-N-ethyl-N-methyltryptammonium fumarate], in data set [1], the “R (mass retention)” value came to 4%; the Pe result is on record as “at least 8 10^-6 cm/s”; the Papp at 5 h, 200 µM amounted to 92 ± 8 nm/s. In data set [2], the “Cell Viability in HuH7 at 50 µM, 2 h Incubation” value (“Cell Viability … 2 h Incubation” below) was determined as 88.1 ± 6.0% and the “Cell Viability in HuH7 at 50 µM, 24 h Incubation” value (shortened to “Cell Viability … 24 h Incubation”) was found to be 83.7 ± 1.0%. Also, the half-life in data set [3] was found to be 0.64 ± 0.04 min. Also, the half-life at 50 µM in data set [4] fell in the range of 15 to 60 min. Besides, in data set [5], the “initial amount of ester degraded” value was “approximately 50%”.
On to `CCN(C)CCc1c[nH]c2cccc(OC(=O)C(C)(C)C)c12` [Compound 8f, 4-Pivaloyloxy-N-ethyl-N-methyltryptammonium fumarate], for which, in data set [1], the “R (mass retention)” value is -2% and the Papp at 5 h, 200 µM turned out to be 107 ± 7 nm/s. Further, in data set [2], the “Cell Viability … 2 h Incubation” value is recorded as 80.4 ± 2.1% and the “Cell Viability … 24 h Incubation” value is 79.4 ± 2.1%. In data set [3], the half-life at 50 µM was more than 60 min. For the same molecule, in data set [4], the half-life at 50 µM was more than 60 min; the “t1/2 at 37 °C and [prodrug]0 = 50 µM, Human Saliva” value is reported as more than 60 min.
Consider `CCN(C)CCc1c[nH]c2cccc(OCOC(=O)C(C)(C)C)c12` [Compound 15c, 4-Pivaloyloxymethyloxy-N-ethyl-N-methyltryptammonium fumarate], for which, in data set [1], the “R (mass retention)” value was found to be 2% and the Pe is 9.7 ± 0.6 10^-6 cm/s. For the same molecule, in data set [2], the “Cell Viability … 2 h Incubation” value was 48.3 ± 16.1% and the “Cell Viability … 24 h Incubation” value is 47.1 ± 10.4%. For the same molecule, the half-life at 50 µM in data set [3] was more than 300 min. For the same molecule, the half-life at 50 µM in data set [4] was less than 15 min.
For `CCN(C)CCc1c[nH]c2cccc(OC(=O)c3ccccc3)c12` [Compound 8i, 4-Benzoyloxy-N-ethyl-N-methyltryptammonium fumarate], in data set [1], the “R (mass retention)” value turned out to be 6% and the Papp at 5 h, 200 µM was found to be 94 ± 8 nm/s. In addition, in data set [2], the “Cell Viability … 2 h Incubation” value is listed as 95.0 ± 3.8% and the “Cell Viability … 24 h Incubation” value was determined as 80.1 ± 1.7%. Also, the half-life in data set [3] is 1.5 ± 0.5 min. In addition, the half-life at 50 µM in data set [4] lay in the range of 15 to 60 min.
Turning to `CN(C)CCc1c[nH]c2cccc(OC(=O)C3CC3)c12` [Compound 19c, 4-(cyclopropanecarbonyloxy)-N,N-dimethyltryptamine], the solubility (thermodynamic) at 6 h in data set [6] is 32600 µM and 8900 µg/mL.
`CCCCCC(=O)Oc1cccc2[nH]cc(CCN(C)CC)c12` [Compound 8c, 4-Hexanoyloxy-N-ethyl-N-methyltryptammonium fumarate, reference compound]: in data set [1], the “R (mass retention)” value was 7% and the Papp at 5 h, 200 µM was determined as 118 ± 10 nm/s. In data set [2], the “Cell Viability … 2 h Incubation” value came to 30.2 ± 1.0% and the “Cell Viability … 24 h Incubation” value is listed as 74.3 ± 8.0%. In addition, in data set [3], the half-life turned out to be 0.66 ± 0.13 min. Moreover, in data set [4], the half-life at 50 µM was less than 15 min.
For `CCN(C)CCc1c[nH]c2cccc(OC(=O)C(C)C)c12` [Compound 8d, 4-iso-Butyryloxy-N-ethyl-N-methyltryptammonium fumarate], in data set [1], the “R (mass retention)” value is 4%; the Pe entry is “at least 8 10^-6 cm/s”; the Papp at 5 h, 200 µM stood at 95 ± 7 nm/s. In data set [2], the “Cell Viability … 2 h Incubation” value came out at 91.4 ± 3.7% and the “Cell Viability … 24 h Incubation” value stood at 82.1 ± 2.3%. The half-life in data set [3] stood at 0.44 ± 0.03 min. Further, in data set [4], the half-life at 50 µM is 15 to 60 min.
As to `CCN(C)CCc1c[nH]c2cccc(OC(C)=O)c12` [Compound 8a, 4-Acetoxy-N-ethyl-N-methyltryptammonium fumarate, reference compound], in data set [1], the “R (mass retention)” value is listed as 4% and the Papp at 5 h, 200 µM is 56 ± 8 nm/s. Also, in data set [2], the “Cell Viability … 2 h Incubation” value is given as 88.7 ± 3.0% and the “Cell Viability … 24 h Incubation” value was found to be 85.4 ± 3.6%. In addition, the half-life in data set [3] is 0.69 ± 0.14 min. Besides, the half-life at 50 µM in data set [4] fell in the range of 15 to 60 min.
